Legend:
[1] = toxicity compared to other lactams having anti-microbial activity
gram-negative bacteria = test: anti-bacterial activity against gram-negative bacteria; type: cell-based
gram-positive bacteria = test: anti-bacterial activity against gram-positive bacteria; type: cell-based

Row | Compound | toxicity [1] | anti-bacterial activity against gram-negative bacteria (gram-negative bacteria) | anti-bacterial activity against gram-positive bacteria (gram-positive bacteria)
1 | C=C1NC(=O)C=C1c1ccc(C)cc1 [5-methylene-4-(p-tolyl)pyrrol-2-one] | unexpectedly low toxicity | shows selective activity | –
2 | C=C1NC(=O)C=C1c1ccc(Cl)cc1 [4-(4-chlorophenyl)-5-methylene-pyrrol-2-one] | unexpectedly low toxicity | shows activity | shows activity

From patent publication US20180244616A1, “LACTAM COMPOSITIONS” (Conopco, Inc., a/b/a UNILEVER, priority 2015, published 2018)
